Data published in patent US12319649B1, “Cannabidiolic acid cocrystals” (Manoira Corporation, priority 2024, dated 2025).

Key:
[1] = Solid-state stability study at 40° C. and 75% relative humidity; format: physicochemical; conditions: 40° C./75% RH, sealed container; for Storage stability compared to pure cannabidiolic acid: up to 4 weeks
Method: The physical stability of the cannabidiolic acid cocrystals was examined with respect to solid form conversion or signs of decomposition or decarboxylation, and to compare the results with those for pure cannabidiolic acid. In order to assess the storage potential of the cocrystals within a reasonable timeframe standard accelerated storage conditions of 40° C. and 75% relative humidity were chosen. 50 mg each of the 1:1 cannabidiolic acid L-phenylalanine, 1:1 cannabidiolic acid vanillin, 1:1 cannabidiolic acid betaine, 1:1 cannabidiolic acid ethyl maltol, 1:1 cannabidiolic acid L-proline and cannabidiolic acid were separately placed in a sealed container at 40° C. and 75% relative humidity and monitored periodically over a 4-week time period. All samples that had not decomposed and remained as solids were analyzed by XRPD after this time to observe any potential form changes. At the start of the study, all cocrystal samples were white solids while the pure cannabidiolic acid was an off-white solid.

5-HT1A = target: T1, 5-HT1A (Rattus norvegicus, UniProt P19327); conditions: higher affinity than CBD; Bolognini et al. 2012; cited from earlier work
T1 sequence (P19327 1-422): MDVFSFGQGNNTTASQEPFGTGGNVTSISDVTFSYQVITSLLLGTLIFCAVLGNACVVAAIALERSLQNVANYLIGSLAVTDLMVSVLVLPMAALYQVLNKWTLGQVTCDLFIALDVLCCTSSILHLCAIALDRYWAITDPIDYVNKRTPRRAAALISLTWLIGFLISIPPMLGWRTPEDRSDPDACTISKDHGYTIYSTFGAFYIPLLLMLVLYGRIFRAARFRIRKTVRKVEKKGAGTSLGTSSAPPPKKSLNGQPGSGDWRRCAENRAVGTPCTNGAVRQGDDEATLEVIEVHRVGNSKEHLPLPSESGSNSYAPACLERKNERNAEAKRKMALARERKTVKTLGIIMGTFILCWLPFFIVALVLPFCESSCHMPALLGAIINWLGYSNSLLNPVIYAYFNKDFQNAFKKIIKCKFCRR

[2] = tested on: nausea and vomiting in a rat model; conditions: via 5-HT1A activation mechanism, Bolognini et al. 2012; cited from earlier work
COX-2 = target: T2, COX-2 (Homo sapiens, UniProt P35354); conditions: Takeda 2008; cited from earlier work
T2 sequence (P35354 18-604): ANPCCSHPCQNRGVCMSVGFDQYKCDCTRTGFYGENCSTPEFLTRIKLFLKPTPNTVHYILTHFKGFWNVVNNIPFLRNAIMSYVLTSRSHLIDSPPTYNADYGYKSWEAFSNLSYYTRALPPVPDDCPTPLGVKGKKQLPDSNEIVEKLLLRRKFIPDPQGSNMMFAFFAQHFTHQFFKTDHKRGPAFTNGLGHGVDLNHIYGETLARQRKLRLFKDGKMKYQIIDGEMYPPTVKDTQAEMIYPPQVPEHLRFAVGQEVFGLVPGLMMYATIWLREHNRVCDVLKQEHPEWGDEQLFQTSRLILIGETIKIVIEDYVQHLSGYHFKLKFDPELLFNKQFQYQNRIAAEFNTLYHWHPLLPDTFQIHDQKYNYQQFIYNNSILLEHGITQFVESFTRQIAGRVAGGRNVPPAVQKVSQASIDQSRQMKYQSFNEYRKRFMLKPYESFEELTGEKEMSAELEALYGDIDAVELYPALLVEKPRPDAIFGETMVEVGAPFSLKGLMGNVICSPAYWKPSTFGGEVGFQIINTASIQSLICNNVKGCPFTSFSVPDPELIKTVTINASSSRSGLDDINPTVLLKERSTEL

[3] = WO2017025712; cited from earlier work

## C=C(C)C1CCC(C)=CC1c1c(O)cc(CCCCC)c(C(=O)O)c1O.O=C(O)C1CCCN1 [1:1 CBDA L-Proline Cocrystal, 1:1 cannabidiolic acid L-proline cocrystal]
[1]; 4 weeks
  XRPD (solid form change): No change
[1]; 4 weeks, listed as 1:1 cannabidiolic acid L-proline cocrystal
  XRPD (solid form change): same crystalline structure
[1]; 4 weeks, white solid at start
  Appearance: tan solid
[1]; 4 weeks, white solid at start, listed as 1:1 cannabidiolic acid L-proline cocrystal
  Appearance: tanned colored solid

## C=C(C)[C@@H]1CCC(C)=C[C@H]1c1c(O)cc(CCCCC)c(C(=O)O)c1O.N[C@@H](Cc1ccccc1)C(=O)O [1:1 CBDA Phenylalanine Cocrystal, 1:1 cannabidiolic acid L-phenylalanine cocrystal]
[1]; 4 weeks
  XRPD (solid form change): No change
[1]; 4 weeks, listed as 1:1 cannabidiolic acid L-phenylalanine
  XRPD (solid form change): no solid form conversion or dissociation had occurred
[1]; 4 weeks, white solid at start
  Appearance: No change
[1]; 4 weeks, white solid at start, listed as 1:1 cannabidiolic acid L-phenylalanine
  Appearance: remained unchanged as white solids
[1]
  Storage stability compared to pure cannabidiolic acid: significantly superior storage properties compared to pure CBDA

## C=C(C)[C@@H]1CCC(C)=C[C@H]1c1c(O)cc(CCCCC)c(C(=O)O)c1O.C[N+](C)(C)CC(=O)[O-] [1:1 CBDA Betaine Cocrystal, 1:1 cannabidiolic acid betaine cocrystal]
[1]; 4 weeks
  XRPD (solid form change): No change
[1]; 4 weeks, listed as 1:1 cannabidiolic acid betaine
  XRPD (solid form change): no solid form conversion or dissociation had occurred
[1]; 4 weeks, white solid at start
  Appearance: No change
[1]; 4 weeks, white solid at start, listed as 1:1 cannabidiolic acid betaine
  Appearance: remained unchanged as white solids
[1]
  Storage stability compared to pure cannabidiolic acid: significantly superior storage properties compared to pure CBDA

## C=C(C)[C@@H]1CCC(C)=C[C@H]1c1c(O)cc(CCCCC)c(C(=O)O)c1O.COc1cc(C=O)ccc1O [1:1 CBDA Vanillin Cocrystal, 1:1 cannabidiolic acid vanillin cocrystal]
[1]
  Time to conversion into dark brown liquid: ≤ 3 weeks
  Storage stability compared to pure cannabidiolic acid: more stable than pure cannabidiolic acid
[1]; 3 weeks, white solid at start
  Appearance: Dark brown liquid

## C=C(C)[C@@H]1CCC(C)=C[C@H]1c1c(O)cc(CCCCC)c(C(=O)O)c1O.CCc1occc(=O)c1O [1:1 CBDA Ethyl Maltol Cocrystal, 1:1 cannabidiolic acid ethyl maltol cocrystal]
[1]
  Time to conversion into dark brown liquid: ≤ 2 weeks
  Storage stability compared to pure cannabidiolic acid: more stable than pure cannabidiolic acid
[1]; 2 weeks, white solid at start
  Appearance: Dark brown liquid

## C=C(C)[C@@H]1CCC(C)=C[C@H]1c1c(O)cc(CCCCC)c(C(=O)O)c1O [Pure CBDA, cannabidiolic acid]
[1]
  Time to deliquescence to a liquid: Within one hour
[1]; 2 hours, off-white solid at start
  Appearance: Dark brown liquid
[1]; 2 hours, off-white solid at start, listed as pure CBDA
  Appearance: liquid that within a further hour had turned dark brown in color
5-HT1A
  Affinity for 5-HT1A relative to CBD: 100 fold
[2]
  Inhibition of nausea and vomiting, potency versus CBD: significantly greater potency than CBD
COX-2
  Inhibition of COX-2 activity: selectively inhibit COX-2 activity
[3]
  Efficacy in treating epilepsy versus CBD: more effective than CBD
